Where two headings read alike, the source gives them in different places.
Assays:
IRAK4 [1] = target: T1, IRAK4 (Homo sapiens (Human), UniProt Q9NWZ3); test: IRAK4 MSD degradation in OCI-LY10; type: cell-based
Summary of the method: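 OCI-LY10 cells treated with 8-point 1:3 dilutions (top 1 to 10 μM final) for 4 to 24 h at 37° C. Lysate IRAK4 measured by MSD sandwich immunoassay (2H9 capture, Y279 detection, SULFO-TAG anti-rabbit). DC50 from three-parameter logistic fit.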

IRAK4 [2] = target: T1, IRAK4; test: hPBMC IRAK4 degradation flow assay; type: cell-based; conditions: hPBMC monocyte
Description: hPBMC IRAK4 degradation flow assay. Frozen PBMCs were thawed into RPMI with 10% FBS and allowed to recover. On the same day as thawed, PBMCs were plated in 96 well plate, 90 uL per well. Compound plates were prepared and a 10 point, 5-fold dilution was performed with a final DMSO concentration of 0.1%. Compound 10 μL per well was added, sealed and incubated at 37° C., 5% C02 for 20 hours (for 4 hour treatment, compounds were prepared and added the following day). […] Cells were spun down and washed two times with PBS/0.5% BSA, aspirated to pellet and placed into −80° C. freezer until further processing for flow. On the flow run day, PBMC plates were thawed and samples were transferred to PCR plates. The pre-perm staining cocktail (CD3 Ax488/CD8 BUV805/CD14 BUV395/CD16/56 BV711/CD19 BV785) was added to samples and incubated for 30 minutes at room temperature. Samples were washed two times and permeabilized with methanol for 10 minutes at 4° C. […] Samples were washed two times with PBS/BSA and run on a BD LSRFortessa. Mononuclear cells are gated by SSCH/FSCH and single cells. Monocytes are then gated through CD14 positive gate and lymphocytes are gated through CD14 negative gate. To determine absolute DC50s and max degradation values, MFI values were normalized to DMSO max and 20 hour 10 μM min control. Twenty hour dose curves were calculated using a 4 parameter logistic regression curve fit, no constraints (Top doses were removed if hook effects were observed and the bottom was constrained to 0).

OCI-LY10 = test: CTG Cell Viability Assay - OCI-LY10; type: cell-based, human; conditions: OCI-LY10, 4 days, read-out: CTG Cell Viability Assay - OCI-LY10: Average external-IC50
Summary of the method: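 OCI-LY10 cells exposed to 9-dose, 1:3 dilutions from 10 μM top (0.2% DMSO) for 4 days at 37° C, 5% CO2. Viability by CellTiter-Glo luminescence; IC50 from three-parameter logistic fit.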

[3] = OCI-LY10, 4 hrs, read-out: IRAK4 MSD degradation in OCI-LY10 at 4 hrs: DC50
[4] = 20 hrs, read-out: IRAK4 degradation in hPBMC monocyte: DC50
[5] = OCI-LY10, 4 hrs, MSD, read-out: IRAK4 MSD degradation in OCI-LY10 at 4 hrs: Average external-Abs DC50
[6] = 20 hr, flow assay, read-out: IRAK4 degradation in hPBMC monocyte at 20 hr: Average external Abs DC50
[7] = OCI-LY10, 24 hrs, MSD, read-out: IRAK4 MSD degradation in OCI-LY10 at 24 hrs: Average external-Abs DC50

T1 sequence (Q9NWZ3 whole entry): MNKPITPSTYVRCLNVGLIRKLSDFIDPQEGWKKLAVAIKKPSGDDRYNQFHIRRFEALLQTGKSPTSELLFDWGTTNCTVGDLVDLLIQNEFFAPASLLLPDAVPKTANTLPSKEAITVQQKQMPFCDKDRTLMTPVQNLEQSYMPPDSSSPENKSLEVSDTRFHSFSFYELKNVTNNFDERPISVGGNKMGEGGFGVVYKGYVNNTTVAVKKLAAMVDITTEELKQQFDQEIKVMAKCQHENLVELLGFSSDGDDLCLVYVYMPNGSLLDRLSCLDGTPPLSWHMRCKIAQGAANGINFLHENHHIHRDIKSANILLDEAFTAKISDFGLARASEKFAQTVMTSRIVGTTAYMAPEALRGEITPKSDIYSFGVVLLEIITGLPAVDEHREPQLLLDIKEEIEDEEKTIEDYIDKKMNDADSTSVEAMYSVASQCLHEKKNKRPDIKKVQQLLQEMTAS

Compound	DC50 (IRAK4 [1]; [3])	DC50 (IRAK4 [2]; [4])	IC50 (OCI-LY10; Homo sapiens, OCI-Ly10, 96 h)	DC50 (IRAK4 [1]; [5])	DC50 (IRAK4 [2]; [6])	IC50 (OCI-LY10)	DC50 (IRAK4 [1]; [7])	DC50 (IRAK4 [1]; OCI-LY10, 24 hrs, read-out: IRAK4 MSD degradation in OCI-LY10 at 24 hrs: DC50)
Cn1c(=O)n(C2CCC(=O)NC2=O)c2ccc(C#CCCCNC[C@H]3CC[C@H](n4cc(NC(=O)c5cnn6ccc(N7C[C@H]8C[C@@H]7CO8)nc56)c(C(F)F)n4)CC3)cc21 (stereo in doubt) [I-512, N-[3-(difluoromethyl)-1-[4-[[5-[1-(2,6-dioxo-3-piperidyl)-3-methyl-2-oxo-benzimidazol-5-yl]pent-4-ynylamino]methyl]cyclohexyl]pyrazol-4-yl]-5-(2-oxa-5-azabicyclo[2.2.1]heptan-5-yl)pyrazolo[1,5-a]pyrimidine-3-carboxamide]	> 1000 nM	100 to 1000 nM	> 1000 nM	–	–	–	–	–
CN(CCCOCCCNc1cccc2c1C(=O)N(C1CCC(=O)NC1=O)C2=O)Cc1ccc(-n2cc(NC(=O)c3cnn4ccc(N5C[C@H]6C[C@@H]5CO6)nc34)c(C(F)F)n2)cc1 (some centres unmarked) [I-320]	–	–	–	> 1000 nM	10 to 100 nM	> 1000 nM	–	–
CC(C)(O)c1cc2nn([C@H]3CC[C@H](CN4CCC5(CC4)CC(Nc4cccc6c4C(=O)N(C4CCC(=O)NC4=O)C6=O)C5)CC3)cc2cc1NC(=O)c1cccc(C(F)(F)F)n1 (some centres unmarked) [I-326]	–	–	< 50 nM	< 10 nM	< 10 nM	–	< 10 nM	–
O=C1CCC(N2C(=O)c3cccc(NCCCOCC4CCN(C[C@H]5CC[C@H](n6cc7cc(NC(=O)c8cccc(C(F)(F)F)n8)c(C(F)F)cc7n6)CC5)CC4)c3C2=O)C(=O)N1 (some centres unmarked) [I-327]	–	–	500 to 1000 nM	10 to 100 nM	10 to 100 nM	–	10 to 100 nM	–
CN(C[C@H]1CC[C@H](n2cc3cc(NC(=O)c4cccc(C(F)(F)F)n4)c(C(C)(C)O)cc3n2)CC1)C1CCC2(CC1)CC(CNc1cccc3c1C(=O)N(C1CCC(=O)NC1=O)C3=O)C2 (some centres unmarked) [I-331]	–	–	< 50 nM	10 to 100 nM	10 to 100 nM	–	< 10 nM	–
CN(CCCOCCCNc1cccc2c1C(=O)N(C1CCC(=O)NC1=O)C2=O)C[C@H]1CC[C@H](n2cc3cc(NC(=O)c4cccc(C(F)(F)F)n4)c(C(C)(C)O)cc3n2)CC1 (some centres unmarked) [I-333]	–	–	100 to 500 nM	10 to 100 nM	< 10 nM	–	10 to 100 nM	–
CC(C)(O)c1cc2nn([C@H]3CC[C@H](CN4CCC(COCCCNc5cccc6c5C(=O)N(C5CCC(=O)NC5=O)C6=O)CC4)CC3)cc2cc1NC(=O)c1cccc(C(F)(F)F)n1 (some centres unmarked) [I-376]	–	–	100 to 500 nM	10 to 100 nM	< 10 nM	–	10 to 100 nM	–
Cn1c(=O)n(C2CCC(=O)NC2=O)c2cccc(CCCN3CC4(CCN(C(=O)[C@H]5CC[C@H](n6cc(NC(=O)c7cnn8ccc(N9C[C@H]%10C[C@@H]9CO%10)nc78)c(C(F)F)n6)CC5)CC4)C3)c21 (some centres unmarked) [I-407]	–	–	> 1000 nM	< 10 nM	< 10 nM	–	–	–
Cn1c(=O)n(C2CCC(=O)NC2=O)c2cccc(CCC(=O)N3CC4(CCN(C[C@H]5CC[C@H](n6cc(NC(=O)c7cnn8ccc(N9C[C@H]%10C[C@@H]9CO%10)nc78)c(C(F)F)n6)CC5)CC4)C3)c21 (some centres unmarked) [I-410]	–	–	> 1000 nM	10 to 100 nM	< 10 nM	–	–	–
O=C1CCC(N2C(=O)c3cccc(NCC4CCN(C[C@H]5CC[C@H](n6cc(NC(=O)c7cnn8ccc(N9C[C@H]%10CC9CO%10)nc78)c(C(F)F)n6)CC5)CC4)c3C2=O)C(=O)N1 (some centres unmarked) [I-442]	100 to 1000 nM	100 to 1000 nM	< 50 nM	–	–	–	–	–
CN(CCCO[C@H]1C[C@H](Nc2cccc3c2C(=O)N(C2CCC(=O)NC2=O)C3=O)C1)C[C@H]1CC[C@H](n2cc(NC(=O)c3cnn4ccc(N5C[C@H]6C[C@@H]5CO6)nc34)c(C(F)F)n2)CC1 (some centres unmarked) [I-444]	100 to 1000 nM	< 10 nM	< 50 nM	–	–	–	–	< 10 nM
O=C1CCC(n2c3cccc(CCCN4CC5(CCN(C(=O)[C@H]6CC[C@H](n7cc(NC(=O)c8cnn9ccc(N%10C[C@H]%11C[C@@H]%10CO%11)nc89)c(C(F)F)n7)CC6)CC5)C4)c3c3cccnc32)C(=O)N1 (some centres unmarked) [I-445]	10 to 100 nM	< 10 nM	> 1000 nM	–	–	–	–	–
Cn1c(=O)n(C2CCC(=O)NC2=O)c2cccc(CCCN3CC4CN(C(=O)[C@H]5CC[C@H](n6cc(NC(=O)c7cnn8ccc(N9C[C@H]%10C[C@@H]9CO%10)nc78)c(C(F)F)n6)CC5)CC4C3)c21 (some centres unmarked) [I-449]	< 10 nM	< 10 nM	> 1000 nM	–	–	–	–	–
Cc1ccc(-c2nn([C@H]3CC[C@H](CN4CCC(OCCCc5cccc6c5n(C)c(=O)n6C5CCC(=O)NC5=O)CC4)CC3)cc2NC(=O)c2cnn3ccc(N4C[C@H]5C[C@@H]4CO5)nc23)nc1 (some centres unmarked) [I-484]	100 to 1000 nM	100 to 1000 nM	> 1000 nM	–	–	–	–	–
Cn1c(=O)n(C2CCC(=O)NC2=O)c2cccc(CCCOC3CCN(CCCCn4ncc(NC(=O)c5cnn6ccc(N7CCOCC7)nc56)c4C(F)F)CC3)c21 (centres unmarked) [I-488]	100 to 1000 nM	100 to 1000 nM	> 1000 nM	–	–	–	–	–
Cn1c(=O)n(C2CCC(=O)NC2=O)c2cccc(CCCN3CC4(CCN(C(=O)[C@H]5CC[C@H](n6cc(NC(=O)c7cnn8cccnc78)c(N7CCOCC7)n6)CC5)CC4)C3)c21 (some centres unmarked) [I-494]	100 to 1000 nM	100 to 1000 nM	> 1000 nM	–	–	–	–	–
O=C1CCC(n2c3cccc(CCCN4CC5(CCN(C[C@H]6CC[C@H](n7cc(NC(=O)c8cnn9ccc(N%10C[C@H]%11C[C@@H]%10CO%11)nc89)c(C(F)F)n7)CC6)CC5)C4)c3c3cccnc32)C(=O)N1 (some centres unmarked) [I-519]	10 to 100 nM	100 to 1000 nM	100 to 500 nM	–	–	–	–	–
Cn1c(=O)n(C2CCC(=O)NC2=O)c2cccc(CC3CCN(c4ccc(CN5CCC(n6cc(NC(=O)c7cnn8ccc(N9C[C@H]%10C[C@@H]9CO%10)nc78)c(C(F)F)n6)CC5)cc4)CC3)c21 (some centres unmarked) [I-520]	10 to 100 nM	< 10 nM	> 1000 nM	–	–	–	–	–
CN1C(=O)C(C2CCC(=O)NC2=O)c2cc(C#CCOC3CCN(C[C@H]4CC[C@H](C5N=C(NC(=O)c6cnn7ccc(N8C[C@H]9C[C@@H]8CO9)nc67)C(C(F)F)=N5)CC4)CC3)ccc21 (some centres unmarked) [I-548]	100 to 1000 nM	100 to 1000 nM	–	–	–	–	–	–
CN(CCCC#Cc1cccc2c1n(C)c(=O)n2C1CCC(=O)NC1=O)C[C@H]1CC[C@H](n2cc(NC(=O)c3cnn4ccc(N5C[C@H]6C[C@@H]5CO6)nc34)c(C(F)F)n2)CC1 (stereo partly drawn) [I-550, 5-((1R,4R)-2-oxa-5-azabicyclo[2.2.1]heptan-5-yl)-N-(3-(difluoromethyl)-1-((1r,4R)-4-(((5-(1-(2,6-dioxopiperidin-3-yl)-3-methyl-2-oxo-2,3-dihydro-1H-benzo [d]imidazol-4-yl)pent-4-yn-1-yl)(methyl)amino)methyl)cyclohexyl)-1H-pyrazol-4-yl)pyrazolo[1,5-a] pyrimidine-3-carboxamide]	10 to 100 nM	< 10 nM	–	–	–	–	–	–
C[C@@H]1CC(OCCc2cccc3c2n(C)c(=O)n3C2CCC(=O)NC2=O)C[C@H](C)N1C[C@H]1CC[C@H](n2cc(NC(=O)c3cnn4ccc(N5C[C@H]6C[C@@H]5CO6)nc34)c(C(F)F)n2)CC1 (some centres unmarked) [I-558]	–	< 10 nM	> 1000 nM	–	–	–	–	–
C[C@H](/C=C/c1cccc2c1n(C)c(=O)n2C1CCC(=O)NC1=O)OC1CCN(C[C@H]2CC[C@H](n3cc(NC(=O)c4cnn5ccc(N6C[C@H]7C[C@@H]6CO7)nc45)c(C(F)F)n3)CC2)CC1 (some centres unmarked) [I-559]	–	< 10 nM	> 1000 nM	–	–	–	–	–

From patent US11352350B2, “IRAK degraders and uses thereof” (Kymera Therapeutics, Inc., priority 2018, dated 2022)
